# Literature values in patent US20030129188A1, “Integrin targeting compounds” (The Scripps Research Institute, priority 2001, published 2003).
# Conditions: more potent than doxorubicin itself
smiles,measurement,value
COc1cccc2c1C(=O)c1c(O)c3c(c(O)c1C2=O)C[C@@](O)(C(=O)CO)C[C@@H]3O[C@H]1C[C@H](N2C=CCC2)[C@H](O)[C@H](C)O1 [2-pyrrolinodoxorubicin],potency relative to doxorubicin,500-1000 times
